From patent publication US20220127281A1, “HETEROARYL COMPOUNDS THAT INHIBIT G12C MUTANT RAS PROTEINS” (AstraZeneca AB, priority 2017, published 2022)

What was measured:
[1] = target: T1, GDP loaded biotinylated KRas^G12C protein (Homo sapiens, UniProt P01116, G12C); assay: KRasG12C functional assay; type: biochemical; details: HTRF FRET readout of SOS-mediated nucleotide exchange and GST-Raf RBD binding; samples incubated for 4 hrs; read-out: KRasG12C functional assay IC50 value
T1 construct: biotin (biotinylated); made in house
T1 sequence (P01116 1-188 isoform P01116-2 G12C): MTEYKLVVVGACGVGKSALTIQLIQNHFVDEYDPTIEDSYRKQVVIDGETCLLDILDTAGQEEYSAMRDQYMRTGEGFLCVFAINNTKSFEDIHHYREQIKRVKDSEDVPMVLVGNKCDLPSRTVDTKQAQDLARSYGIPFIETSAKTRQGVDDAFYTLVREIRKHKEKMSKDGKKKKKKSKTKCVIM
Experimental: KRasG12C Functional Assay
All enzyme and substrate solutions were prepared in assay buffer containing 20 mM HEPES (pH 7.5), 5 mM MgCl2, 150 mM NaCl, and 0.01% Tween 20. […] In a separate mix 20 nM GST-Raf Ras binding domain (GST-Raf RBD, purified in house) and 4 μg/ml anti-GST XL665 antibody (Cisbio) was prepared in assay buffer containing 50 mM Potassium Fluoride and 0.05 mg/ml BSA and equilibrated for 4 hours before adding 0.6 μM Guanosine 5′-[γ-thio]triphosphate (GTPγS, Sigma) and 0.08 μM SOS (purified in house). 5 μl of the GST-RAF RBD mix was then dispensed into each well of the assay plate. […] This is detected simultaneously via the specific binding interaction between active GTPγS KRas^G12C with GST-Raf RBD which brings the europium and XL665 into close proximity enabling an increased FRET signal to be detected on a Pherastar (BMG) plate reader equipped with the HTRF filter module. […] IC50 values were calculated from normalised dose-response response FRET data curve fitted in Genedata screener (Basel, Switzerland).

[2] = target: T1, GDP loaded biotinylated KRas^G12C protein; assay: KRasG12C mass spectrometry adducting assay; type: binding; details: test compound final concentration 10 μM, 4 μM KRasG12C, react for 4 hours
Experimental: KRasG12C Mass Spectrometry Adducting Assay
Enzyme solutions were prepared in assay buffer containing 20 mM HEPES (pH 7.5), 5 mM MgCl2, and 150 mM NaCl. […] The plate was sealed before reading on a Xevo G2 QTOF (Waters) and Acquity LC system (Waters). […] Blank samples were run in between each test sample.
Data was analysed in Mass Lynx software (Waters), the Total ion count (TIC) trace was used and the eluted protein peak data combined. Using the combined spectrum the data was deconvoluted using MaxEnt1 method. The peak area for apo-protein KRas^G12C (APO) and KRAS+relative cmpd mass (adduct) were measured, and a percentage adduct was calculated using the following calculation:
Percent adduct=100*(area of adduct peak/(sum of APO+adduct peaks)

Row | Compound | IC50 [1] [µM] | KRasG12C M.S. Binding Mean adduct % [2] [%]
1 | C=CC(=O)N1CCN2c3ncnc4cc(-c5ccccc5S(C)(=O)=O)c(Cl)c(c34)OC[C@@H]2C1 [Example 29, 1-[(8aS)-6-Chloro-5-[2-(methylsulfonyl)phenyl]-8a,9,11,12-tetrahydropyrazino[2′,1′:3,4][1,4]oxazepino[5,6,7-de]quinazolin-10(8H)-yl]prop-2-en-1-one] | 5.02 | 45
2 | C=CC(=O)N1CCN2c3ncnc4cc(-c5ccccc5C(=O)NC)c(Cl)c(c34)OC[C@@H]2C1 [Example 30, 2-[(8aS)-10-Acryloyl-6-chloro-8,8a,9,10,11,12-hexahydropyrazino[2′,1′:3,4][1,4]oxazepino[5,6,7-de]quinazolin-5-yl]-N-methylbenzamide] | 9.41 | 22
3 | C=CC(=O)N1CCN2c3ncnc4cc(-c5cccc(S(N)(=O)=O)c5)c(Cl)c(c34)OC[C@@H]2C1 [Example 31, 3-[(8aS)-10-Acryloyl-6-chloro-8,8a,9,10,11,12-hexahydropyrazino[2′,1′:3,4][1,4]oxazepino[5,6,7-de]quinazolin-5-yl]benzenesulfonamide] | 6.97 | 14
4 | C=CC(=O)N1CCN2c3ncnc4cc(-c5cccc6nccnc56)c(Cl)c(c34)OC[C@@H]2C1 [Example 32, 1-[(8aS)-6-Chloro-5-(quinoxalin-5-yl)-8a,9,11,12-tetrahydropyrazino[2′,1′:3,4][1,4]oxazepino[5,6,7-de]quinazolin-10(8H)-yl]prop-2-en-1-one] | 8.32 | 33
5 | C=CC(=O)N1CCN2c3ncnc4cc(-c5cccc(NC(=O)OC)c5)c(Cl)c(c34)OC[C@@H]2C1 [Example 33, Methyl {3-[(8aS)-10-Acryloyl-6-chloro-8,8a,9,10,11,12-hexahydropyrazino[2′,1′:3,4][1,4]oxazepino[5,6,7-de]quinazolin-5-yl]phenyl}carbamate] | 6.91 | 24
6 | C=CC(=O)N1CCN2c3ncnc4cc(-c5cccc6c5CN(C)CC6)c(Cl)c(c34)OC[C@@H]2C1 [Example 34, 1-[(8aS)-6-Chloro-5-(2-methyl-1,2,3,4-tetrahydroisoquinolin-8-yl)-8a,9,11,12-tetrahydropyrazino[2′,1′:3,4][1,4]oxazepino[5,6,7-de]quinazolin-10(8H)-yl]prop-2-en-1-one] | 3.47 | 8
7 | C=CC(=O)N1CCN2c3ncnc4cc(-c5ccccc5OC(F)(F)F)c(Cl)c(c34)OC[C@@H]2C1 [Example 35, 1-[(8aS)-6-Chloro-5-[2-(trifluoromethoxy)phenyl]-8a,9,11,12-tetrahydropyrazino[2′,1′:3,4][1,4]oxazepino[5,6,7-de]quinazolin-10(8H)-yl]prop-2-en-1-one] | 1.48 | 87
8 | C=CC(=O)N1CCN2c3ncnc4cc(-c5cccc(N=S(C)(C)=O)c5)c(Cl)c(c34)OC[C@@H]2C1 [Example 36, 1-[(8aS)-6-Chloro-5-(3-{[dimethyl(oxido)-lambda~6~- sulfanylidene]amino}phenyl)-8a,9,11,12-tetrahydropyrazino[2′,1′:3,4][1,4]oxazepino[5,6,7-de]quinazolin-10(8H)-yl]prop-2-en-1-one] | 6.38 | 21
9 | C=CC(=O)N1CCN2c3ncnc4cc(-c5cccc6c(C)n(C)nc56)c(Cl)c(c34)OC[C@@H]2C1 [Example 37, 1-[(8aS)-6-Chloro-5-(2,3-dimethyl-2H-indazol-7-yl)-8a,9,11,12-tetrahydropyrazino[2′,1′:3,4][1,4]oxazepino[5,6,7-de]quinazolin-10(8H)-yl]prop-2-en-1-one] | 2.73 | 49
10 | C=CC(=O)N1CCN2c3ncnc4cc(-c5cc(CO)ccc5F)c(Cl)c(c34)OC[C@@H]2C1 [Example 38, 1-[(8aS)-6-Chloro-5-[2-fluoro-5-(hydroxymethyl)phenyl]-8a,9,11,12-tetrahydropyrazino[2′,1′:3,4][1,4]oxazepino[5,6,7-de]quinazolin-10(8H)-yl]prop-2-en-1-one] | 1.28 | 82
11 | C=CC(=O)N1CCN2c3ncnc4cc(-c5cccc6cnn(C)c56)c(Cl)c(c34)OC[C@@H]2C1 [Example 39, 1-[(8aS)-6-Chloro-5-(1-methyl-1H-indazol-7-yl)-8a,9,11,12-tetrahydropyrazino[2′,1′:3,4][1,4]oxazepino[5,6,7-de]quinazolin-10(8H)-yl]prop-2-en-1-one] | 0.803 | 79
12 | C=CC(=O)N1CCN2c3ncnc4cc(-c5cc(F)ccc5F)c(Cl)c(c34)OC[C@@H]2C1 [Example 40, 1-[(8aS)-6-Chloro-5-(2,5-difluorophenyl)-8a,9,11,12-tetrahydropyrazino[2′,1′:3,4][1,4]oxazepino[5,6,7-de]quinazolin-10(8H)-yl]prop-2-en-1-one] | 0.955 | 67
13 | C=CC(=O)N1CCN2c3ncnc4cc(-c5ccccc5Cl)c(Cl)c(c34)OC[C@@H]2C1 [Example 42, 1-[(8aS)-6-Chloro-5-(2-chlorophenyl)-8a,9,11,12-tetrahydropyrazino[2′,1′:3,4][1,4]oxazepino[5,6,7-de]quinazolin-10(8H)-yl]prop-2-en-1-one] | 0.247 | 100

Continued, values first:

Row | IC50 [1] [µM] | KRasG12C M.S. Binding Mean adduct % [2] [%] | Compound
14 | 0.479 | 100 | C=CC(=O)N1CCN2c3ncnc4cc(-c5ccccc5C)c(Cl)c(c34)OC[C@@H]2C1 [Example 41, 1-[(8aS)-6-Chloro-5-(2-methylphenyl)-8a,9,11,12-tetrahydropyrazino[2′,1′:3,4][1,4]oxazepino[5,6,7-de]quinazolin-10(8H)-yl]prop-2-en-1-one]
15 | 1.49 | 56 | C=CC(=O)N1CCN2c3ncnc4cc(-c5cccc6c5COCCO6)c(Cl)c(c34)OC[C@@H]2C1 [Example 43, 1-[(8aS)-6-Chloro-5-(2,3-dihydro-5H-1,4-benzodioxepin-6-yl)-8a,9,11,12-tetrahydropyrazino[2′,1′:3,4][1,4]oxazepino[5,6,7-de]quinazolin-10(8H)-yl]prop-2-en-1-one]
16 | 3.62 | 51 | C=CC(=O)N1CCN2c3ncnc4cc(-c5cccc6ccc(=O)n(C)c56)c(Cl)c(c34)OC[C@@H]2C1 [Example 44, 8-[(8aS)-10-Acryloyl-6-chloro-8,8a,9,10,11,12-hexahydropyrazino[2′,1′:3,4][1,4]oxazepino[5,6,7-de]quinazolin-5-yl]-1-methylquinolin-2(1H)-one]
17 | 1.58 | 72 | C=CC(=O)N1CCN2c3ncnc4cc(-c5cccc6c5ncn6C)c(Cl)c(c34)OC[C@@H]2C1 [Example 45, 1-[(8aS)-6-Chloro-5-(1-methyl-1H-benzimidazol-4-yl)-8a,9,11,12-tetrahydropyrazino[2′,1′:3,4][1,4]oxazepino[5,6,7-de]quinazolin-10(8H)-yl]prop-2-en-1-one]
18 | 1.51 | 65 | C=CC(=O)N1CCN2c3ncnc4cc(-c5cn(C)c6ccccc56)c(Cl)c(c34)OC[C@@H]2C1 [Example 46, 1-[(8aS)-6-Chloro-5-(1-methyl-1H-indol-3-yl)-8a,9,11,12-tetrahydropyrazino[2′,1′:3,4][1,4]oxazepino[5,6,7-de]quinazolin-10(8H)-yl]prop-2-en-1-one]
19 | 9.82 | 9 | C=CC(=O)N1CCN2c3ncnc4cc(-c5cccc6oc(=O)n(C)c56)c(Cl)c(c34)OC[C@@H]2C1 [Example 47, 4-[(8aS)-10-Acryloyl-6-chloro-8,8a,9,10,11,12-hexahydropyrazino[2′,1′:3,4][1,4]oxazepino[5,6,7-de]quinazolin-5-yl]-3-methyl-1,3-benzoxazol-2(3H)-one]
20 | 6.31 | 68 | C=CC(=O)N1CCN2c3ncnc4cc(-c5cc(Cl)ccc5OC)c(Cl)c(c34)OC[C@@H]2C1 [Example 48, 1-[(8aS)-6-Chloro-5-(5-chloro-2-methoxyphenyl)-8a,9,11,12-tetrahydropyrazino[2′,1′:3,4][1,4]oxazepino[5,6,7-de]quinazolin-10(8H)-yl]prop-2-en-1-one]
21 | 7.53 | 28 | C=CC(=O)N1CCN2c3ncnc4cc(-c5ccccc5CC(N)=O)c(Cl)c(c34)OC[C@@H]2C1 [Example 49, 2-{2-[(8aS)-10-Acryloyl-6-chloro-8,8a,9,10,11,12-hexahydropyrazino[2′,1′:3,4][1,4]oxazepino[5,6,7-de]quinazolin-5-yl]phenyl}acetamide]
